Results from ChEMBL document CHEMBL1148986, “Scalarane metabolites of the nudibranch Glossodoris rufomarginata and Its dietary sponge from the South China Sea” (J Nat Prod, 2004).

What follows are compounds tested on Gambusia affinis (assay: Ichthyotoxicity against Gambusia affinis at 10 ppm). Details: in vivo; call rule not given here.
Type: organism-based
`CC(=O)O[C@H]1C[C@@H]2[C@@]3(C)CCCC(C)(C)[C@@H]3CC[C@@]2(C)[C@@H]2CC=C3CO[C@@H](O)[C@@H]3[C@@]12C` was tested, and the Activity was “Toxic”.
`CC(=O)O[C@@H]1OCC2=CC[C@H]3[C@]4(C)CC[C@H]5C(C)(C)CCC[C@]5(C)[C@H]4C[C@H](OC(C)=O)[C@]3(C)[C@H]21` [DEOXOSCALARIN ACETATE] was tested, and the Activity was “Not Active”.
In the case of `CC1(C)CCC[C@]2(C)[C@H]3CC(=O)[C@]4(C)[C@@H](C=O)C(C=O)=CC[C@H]4[C@]3(C)CC[C@@H]12`, the Activity is reported as “Toxic”.
For `CC(=O)O[C@H]1C[C@@H]2[C@@]3(C)CCCC(C)(C)[C@@H]3CC[C@@]2(C)[C@@H]2CC=C(C=O)[C@H](C=O)[C@@]12C` [SCALARADIAL], the Activity was “Toxic”.
`CC1(C)CCC[C@]2(C)[C@H]3C[C@H](O)[C@]4(C)[C@@H](C=O)C(C=O)=CC[C@H]4[C@]3(C)CC[C@@H]12` was tested, and the Activity was “Toxic”.
For `CC(=O)O[C@@H]1OCC2=CC[C@H]3[C@]4(C)CC[C@H]5C(C)(C)CCC[C@]5(C)[C@H]4CC(=O)[C@]3(C)[C@H]21`, the Activity was “Toxic”.
With `CC1(C)CCC[C@]2(C)[C@H]3CC(=O)[C@]4(C)[C@@H]5C(=CC[C@H]4[C@]3(C)CC[C@@H]12)CO[C@H]5O` the Activity was “Toxic”.
